From patent publication US20230346943A1, “SPACER-MEDIATED CONTROL OF UNCAGING PHOTOCAGED MOLECULES” (The Regents of the University of California, priority 2020, published 2023)

Experiments:
[1] = UV-vis absorption property; conditions: for λmax: UV-vis spectrum; for λmax / Molar absorptivity ε at λmax: 35% aq methanol
Protocol: We observed the absorption properties of the coumarin (DEACM), a common photocage present in 1 and 2, as shown in their UV-vis spectra (FIG. 2A).
Spectra for UV-vis Absorption Were Recorded With a Perkin Elmer Lamda 20 Spectrophotometer.

[2] = Photolysis (photon uncaging) kinetics of photocaged thymidine monitored by UPLC; assay type: physicochemical; conditions: for Rate constant (first order) for the decay of photocaged thymidine (kdecay) / Quantum efficiency (Φ) of release for thymidine (dT) / Quantum efficiency (Φ) of release for thymidine-retaining byproduct(s): 35% (v/v) aq methanol; for Efficiency of thymidine release (max): maximal free thymidine released on photolysis; for Formation of thymidine-bearing byproduct dT^N-DEACM on photolysis: regardless of the light wavelength (365, 420, 455 nm)
Protocol: Photolysis of 1 was performed in an aqueous medium (0.21 mM in 35% (v/v) aq methanol), and its uncaging kinetics was determined by monitoring exposed solutions using UV-vis spectroscopy and UPLC (FIGS. 3A-3D). UV-vis spectra acquired after photolysis at 420 nm (exposure time = 0-20 min) show absorption changes in an exposure time-dependent manner (FIGS. 5A-5F), but these are not applicable for the detection and quantitation of thymidine released. In contrast, UPLC traces acquired after photolysis (FIG. 3A) show the disappearance of 1 with the concomitant growth of free thymidine (dT) (tr = 3.1 min) along with coumarin photocage detached 5 (tr = 6.5 min). The area under curve (AUC) analysis of these peaks provided a decay curve for 1 (FIG. 3B). Its regression analysis allowed determining a rate constant for first-order decay (kdecay = 1.5 ×10^-3 sec^-1), and quantum efficiency for thymidine release (ΦdT = 0.015) (Table 1).
We similarly evaluated the uncaging kinetics of 2 dT^O-Bn-DEACM (0.17 mM in 35% (v/v) aq methanol) by irradiation at 420 nm (FIGS. 3C-3D). Its photolysis led to smaller changes in UV-vis spectra with lack of a clear trend compared to 1 dT^O-DEACM (FIGS. 5A-5F). Overlaid UPLC traces show time-dependent, rapid uncaging of 2 with ~65% release of thymidine achieved after an initial exposure for 5 min. […] Regression analysis of its decay curve provided a decay constant (kdecay = 1.1×10^-3 sec^-1), which is slightly lower than that of 1 (Table 1). However, its lack of the byproduct formation makes a positive contribution to enhancing its quantum efficiency for thymidine release (ΦdT = 0.025) compared to 1 (ΦdT = 0.015). This clean uncaging kinetics offers evidence for greater advantages in thymidine uncaging by the extended spacer than the direct ether linkage.
UPLC was performed for homogeneity analysis and compound characterization in a Waters Acquity System combined with a photodiode array (PDA) detector. The UPLC analysis involved running a sample in a C4 BEH column (100 × 2.1 mm, 300 Å) at a flow rate of 0.2 mL min^-1. The elution occurred in a linear gradient composed of two mobile solvents, water and acetonitrile, each containing TFA (0.1% v/v) (eluent A and B respectively). Its method consisted of an initial phase 1% B (0-1.4 min), a linear increased to 80% B (1.4-13.4 min), a decrease to 50% B (13.4-13.8 min), a decrease to 1% B (13.8-14.4 min) and finally an isocratic elution at 1% B (14.4-18 min). This method was also applied for the kinetic analysis of product release.
Light Sources. Photolytic studies for thymidine release were performed with three light sources. These include: i) UV lamp (XX-15A, Spectroline®) for irradiation at long wavelength UV light (UVA) with a maximal intensity at 365 nm;^4 ii) LZC-420 lamp (Luzchem Research) for visible light at 420 nm; iii) LZC-LBL light emitting diode (LED) lamp (Luzchem Research) for visible (blue) light 445-465 nm. Photon flux density (qn,p = qp/NA, mol × s^-1) of each lamp was determined by ferrioxalate actinometry according to a standard protocol.^52, ^53 […]
Uncaging Kinetics and Analysis. Typically, a solution of photocaged thymidine 1 or 2 (dT^caged: 0.05-0.1 mg/mL) in aq methanol (30-35% v/v) was prepared and exposed to the light at a distance of ~5 cm. After each exposure period, the solution was aliquoted out as a function of irradiation time (0-30 min), and each aliquot was analyzed by UPLC and UV-vis absorption spectrometry to determine the kinetics of thymidine release and byproduct formation. Certain aliquot was further analyzed by HPLC-MS mass spectrometry (ESI) to validate the identity of thymidine and released molecular species in the photolysed solution.
Quantum efficiency (Φ) for the release of thymidine (dT) is defined in eq 1, and its value was calculated according to a standard method as noted in eq 2:^53 […]

[3] = photon uncaging ability of the N-isomer; cited from earlier work

Row | λmax [1] | Molar absorptivity ε at 455 nm [1] | Molar absorptivity ε at λmax [1] | Quantum efficiency (Φ) of release for thymidine (dT) ([2]; irradiation 365 nm) | Quantum efficiency (Φ) of release for thymidine-retaining byproduct(s) ([2]; irradiation 365 nm) | Quantum efficiency (Φ) of release for thymidine (dT) ([2]; irradiation 420 nm) | Quantum efficiency (Φ) of release for thymidine-retaining byproduct(s) ([2]; irradiation 420 nm) | Quantum efficiency (Φ) of release for thymidine (dT) ([2]; irradiation 455 nm) | Quantum efficiency (Φ) of release for thymidine-retaining byproduct(s) ([2]; irradiation 455 nm) | Efficiency of thymidine release (max) [2] | Formation of thymidine-bearing byproduct dT^N-DEACM on photolysis [2] | Undesired species (tr = 7.8 min) in UPLC traces after photolysis ([2]; irradiation 420 nm) | Release of thymidine after initial exposure ([2]; irradiation 420 nm, exposure 5 min) | Efficiency of thymidine release (max) ([2]; listed as new photocaged thymidine) | Molecule | Rate constant (first order) for the decay of photocaged thymidine (kdecay) ([2]; irradiation 365 nm (UVA)) | Rate constant (first order) for the decay of photocaged thymidine (kdecay) ([2]; irradiation 420 nm (visible)) | Rate constant (first order) for the decay of photocaged thymidine (kdecay) ([2]; irradiation 455 nm (visible)) | Decay on irradiation relative to 1 dT^O-DEACM [3] | Faster decay than 1 at 455 nm ([2]; irradiation 455 nm, relative to 1) | Photolysis rate at 455 nm lower than at 420 nm ([2]; ratio of decay rates, 455 nm vs 420 nm)
1 | 393 nm | 1,115 M^-1cm^-1 | 10,209 M^-1cm^-1 | 0.006 | 0.005 | 0.015 | 0.017 | 0.017 | 0.023 | 58% | induces a thymidine-bearing byproduct | – | – | – | CCN(CC)c1ccc2c(COc3nc(=O)n([C@H]4C[C@H](O)[C@@H](CO)O4)cc3C)cc(=O)oc2c1 [Compound 1, dT^O-DEACM, reference compound] | 0.00089 s⁻¹ | 0.0015 s⁻¹ | 0.00012 s⁻¹ | – | – | –
2 | – | – | – | – | – | – | – | – | – | – | – | – | – | – | CCN(CC)c1ccc2c(Cn3c(=O)c(C)cn(C4CC(O)C(CO)O4)c3=O)cc(=O)oc2c1 (stereo not shown) [dT^N-DEACM] | – | – | – | approximately two orders of magnitude more slowly | – | –
3 | 390 nm | 1,653 M^-1cm^-1 | 11,603 M^-1cm^-1 | 0.014 | – | 0.025 | – | 0.081 | – | 94% | lack of the byproduct formed | have not observed the undesired species | ~ 65% | ~ 94% | dT^O-Bn-DEACM [Compound 2] | 0.0011 s⁻¹ | 0.0011 s⁻¹ | 0.00058 s⁻¹ | – | ~ 5 Fold | approximately 2 Fold
